Source: the supplement of paper PMC11061612

Columns and labels:
Test in all cases: combination Emax (second highest fraction inhibited in the dose matrix, 72 h); higher = more inhibition; extreme values may be limits of the assay
[1] = system: 697 (B-Lymphoblastic Leukemia)
How it was run: (§1)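 Bliss excess equals the observed combination effect minus the expected value EA + EB − EA·EB, where EA and EB are the effects of each agent alone. Combination Emax is the second-highest inhibition within the matrix. Inhibition was scaled from CellTiter-Glo 2.0 luminescence, with 0 set by vehicle wells and 1 by blank wells, after 72 hours of two-drug dosing of cells plated in 1536-well plates.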

[2] = system: C3A (Hepatocellular Carcinoma)
How it was run: as §1

[3] = system: COR-L23 (Non-Small Cell Lung Carcinoma)
How it was run: as §1

[4] = system: DB (B-Cell Non-Hodgkin's Lymphoma)
How it was run: as §1

[5] = system: DMS-273 (Small Cell Lung Carcinoma)
How it was run: as §1

[6] = system: EM-2 (Chronic Myelogenous Leukemia)
How it was run: as §1

ES7 (Ewing's Sarcoma) = system: ES7 (Ewing's Sarcoma)
How it was run: as §1

[7] = system: G-292-Clone-A141B1 (Osteosarcoma)
How it was run: as §1

[8] = system: HT-29 (Colorectal Carcinoma)
How it was run: as §1

J82 (Bladder Carcinoma) = system: J82 (Bladder Carcinoma)
How it was run: as §1

[9] = system: JiyoyeP-2003 (Burkitt's Lymphoma)
How it was run: as §1

[10] = system: KATOIII (Gastric Carcinoma)
How it was run: as §1

[11] = system: LU-99A (Non-Small Cell Lung Carcinoma)
How it was run: as §1

[12] = system: NCI-H1694 (Small Cell Lung Carcinoma)
How it was run: as §1

[13] = system: NCI-H1781 (Lung Adenocarcinoma)
How it was run: as §1

[14] = system: NCI-H1793 (Lung Adenocarcinoma)
How it was run: as §1

RH-1 (Ewing's Sarcoma) = system: RH-1 (Ewing's Sarcoma)
How it was run: as §1

[15] = system: SW1783 (Low Grade Glioma)
How it was run: as §1

[16] = system: TE-5 (Esophageal Squamous Cell Carcinoma)
How it was run: as §1

[17] = system: CTV-1 (T-Lymphoblastic Leukemia)
How it was run: as §1

Structure (SMILES)	combination Emax [1]	combination Emax [2]	combination Emax [3]	combination Emax [4]	combination Emax [5]	combination Emax [6]	combination Emax (ES7 (Ewing's Sarcoma))	combination Emax [7]	combination Emax [8]	combination Emax (J82 (Bladder Carcinoma))	combination Emax [9]	combination Emax [10]	combination Emax [11]	combination Emax [12]	combination Emax [13]	combination Emax [14]	combination Emax (RH-1 (Ewing's Sarcoma))	combination Emax [15]	combination Emax [16]	combination Emax [17]
CN(CCO)CC[C@H](CSc1ccccc1)Nc1ccc(S(=O)(=O)NC(=O)c2ccc(N3CCC([C@@H](O)c4ccccc4-c4ccc(Cl)cc4)CC3)cc2)cc1S(=O)(=O)C(F)(F)F [AZD4320] + C=CCn1c(=O)c2cnc(Nc3ccc(N4CCN(C)CC4)cc3)nc2n1-c1cccc(C(C)(C)O)n1 [AZD1775] (first compound max 1 µM, partner max 1 µM)	1	0.631	0.656	1	0.708	0.99	0.935	0.559	0.965	0.117	0.992	0.206	0.762	0.906	0.563	0.449	0.986	0.531	0.663	
COc1nnc2ccc(N3CCC(c4ccc(OCCN5CCN(C)C(=O)[C@H]5C)cc4)CC3)nn12 [AZD5153] + CN(CC[C@H](CSC1=CC=CC=C1)NC2=C(C=C(C=C2)S(=O)(=O)NC(=O)C3=CC=C(C=C3)N4CCC(CC4)[C@H](C5=CC=CC=C5C6=CC=C(C=C6)Cl)O)S(=O)(=O)C(F)(F)F)CCO [AZD4320] (first compound max 1 µM, 7x7, partner max 1 µM)	1	0.489	0.424		0.746	0.988			0.774	0.397	0.893		0.937	1	0.251	0.323	0.49			0.933
Cc1c2c(nn1C)CSCc1cc(n(C)n1)CSc1cc(c3ccccc3c1)OCCCc1c(C(=O)O)n(C)c3c-2c(Cl)ccc13 [AZD5991] + C=CCn1c(=O)c2cnc(Nc3ccc(N4CCN(C)CC4)cc3)nc2n1-c1cccc(C(C)(C)O)n1 [AZD1775] (first compound max 1 µM, partner max 1 µM)	1		0.605	0.999	0.987	0.983	0.732	0.262	0.877	0.314	0.987	0.237	0.428	0.961	0.65	0.488	0.994	0.322	0.536	0.925
